Experimental data: patent US11213533B2, “Combinations comprising dibromopropamidine or diminazene and a tetracycline anti-bacterial agent” (UNION therapeutics A/S, priority 2016, dated 2022)
Where a name gives a salt, the structure may show the parent alone. Read-outs that look alike come from different tables or passages of the source.

How the values were obtained:
[1] = system: Pseudomonas aeruginosa (X11045); assay: Checkerboard MIC / synergy determination (FIC, CI) against Pseudomonas aeruginosa; type: cell-based; conditions: for synergy with dibromopropamidine (in words): combination with dibromopropamidine, inhibition of P. aeruginosa, Table 3; for MIC tetracycline (μg/ml) (combination) / CI value / synergy with diminazene (in words) / FIC tetracycline compound / FIC tetracycline / MIC tetracycline / MIC tetracycline compound / MIC / MIC dibromopropamidine (μg/ml) (combination) / FIC dibromopropamidine / MIC diminazene (μg/ml) (combination): P. aeruginosa; for CI value: CI < 1 = synergy; for synergy with diminazene (in words): combination with diminazene, Table 2; for FIC tetracycline compound: in combination with dibromopropamidine; for FIC tetracycline: in combination with diminazene; for MIC: Pseudomonas aeruginosa
Procedure: In microbiology, minimum inhibitory concentration (MIC) is the lowest concentration of an antibacterial that will inhibit the visible growth of a microorganism after overnight incubation. Minimum inhibitory concentrations are important in diagnostic laboratories to confirm resistance of microorganisms to an antimicrobial agent and also to monitor the activity of new antimicrobial agents. The MIC can be determined using standard methods, for example as described in Andrews, J. Antimicrobial Chemotherapy, 48, 2001, Suppl. S1, 5-16. Typically, MIC is determined using 96-well plates, and serial two-fold dilutions of the antibacterial agent in a culture medium containing the bacteria with an approximate concentration of 10^3 cells per well. Plates are incubated at 37° C. for 18 to 24 hours. Optical density, at a wavelength of 600 nm, is then measured at the start and at the end of the incubation period. Inhibition in a particular well is calculated as (Inhibition=1−ODtest/ODno treatment). The MIC value is the minimum concentration of antibacterial agent which gives 100% inhibition. Experiments are generally performed at least as triplicate biological replicates.
The CI is measured by first calculating the fractional inhibitory concentration (FIC) of the individual actives (e.g. “compound A” or “compound B”) in a combination product against a certain bacterial strain. This is calculated by dividing the minimum inhibitory concentration (MIC) of the active in a combination product by the minimum inhibitory concentration of the active alone.
The Combination Index (CI) is calculated by adding the FIC of the two actives together. CI value=FICCompound A+FICCompound B
A CI value of 1 means the combined effect of the two agents is additive. A CI value of less than 1 means that the two agents act synergistically. It is therefore understood that the lower the CI value, the better the synergistic effect of the combination product. For a drug combination to show synergistic effects, the CI value will typically be less than 1.
This study was conducted with the following strains: Pseudomonas aeruginosa (X11045). P. aeruginosa (X11045) was received form Statens Serum Institute.
The bacteria from cryopreserved stocks were grown on LB agar plates [G. Bertani, “Studies on lysogenesis. I. The mode of phage liberation by lysogenic Escherichia coli,” J. Bacteriol., vol. 62, no. 3, pp. 293-300, September 1951] and incubated overnight at 37° C.
One colony was transferred into 15 ml of cation-adjust Mueller Hinton broth (MH2) [J. H. Mueller and J. Hinton, “A Protein-Free Medium for Primary Isolation of the Gonococcus and Meningococcus,” Exp. Biol. Med., vol. 48, no. 1, pp. 330-333, October 1941] and incubated overnight at 37° C. shaken at 200 rpm.
Checkerboard Methods of Antimicrobial Combinations Synergy Determination • 1. Day 1. • Bacterial strains are isolated on agar plates and incubated overnight at 37° C. Pseudomonas aeruginosa (X11045) on LB agar. • 2. Day 2. • For each strain, one colony is transferred into 15 ml of Mueller Hinton broth (MHB) and incubated overnight at 37° C. shaken at 200 rpm. • 3. Day 3. • Fifty microliters of the O/N culture are inoculated to 5 ml of Mueller Hinton broth in 15 ml conical tubes and incubated for 5 hours at 37° C. shaken at 200 rpm. • 4. Dispense 150 μl of MHB in each well of the 12th column for positive and negative controls as shown above. • 5. Prepare each drug to Cmax×2 • a. Diminazene/Dibromopropamidine: • Make a series of 2-fold dilution as shown in the plate layout. Using the 12 channel pipet, dispense 75 μl of diminazene solution in each well so that the final volume will be 150 μl and the final concentration is as shown in the plate schematic above. • b. Tetracycline antibiotics: • Make a series of 2-fold dilution as shown in the plate layout. […]

E. Coli = assay: Checkerboard MIC / synergy determination (FIC, CI) against E. coli; type: cell-based, Escherichia coli; conditions: for MIC tetracycline (μg/ml) (combination): MIC of the tetracycline antibiotic in combination with diminazene; for CI value: combination of the tetracycline antibiotic with diminazene, CI < 1 = synergy; for FIC tetracycline compound: in combination with diminazene; for MIC: Escherichia coli
[2] = cited from earlier work
[3] = MIC of the tetracycline antibiotic in combination with dibromopropamidine
[4] = MIC of the tetracycline antibiotic in combination with diminazene, OD600 after 18 hours
[5] = combination of the tetracycline antibiotic with dibromopropamidine
[6] = combination of the tetracycline antibiotic with diminazene
[7] = tetracycline antibiotic alone, Table 2 (diminazene series)
[8] = tetracycline antibiotic alone, Table 3 (dibromopropamidine series)
[9] = in combination with doxycycline hyclate
[10] = in combination with minocycline hydrochloride
[11] = in combination with tetracycline hydrochloride
[12] = in combination with tigecycline hydrate
[13] = diminazene alone, read-out: MIC diminazene
[14] = diminazene in combination with doxycycline hyclate
[15] = diminazene in combination with minocycline hydrochloride
[16] = diminazene in combination with tetracycline hydrochloride

Compound	MIC tetracycline (μg/ml) (combination) [1, 3] [µg/mL]	MIC tetracycline (μg/ml) (combination) [1, 4] [µg/mL]	CI value [1, 5]	CI value [1, 6]	synergy with diminazene (in words) [1]	FIC tetracycline compound [1]	FIC tetracycline [1]	MIC tetracycline compound [1, 8] [µg/mL]	MIC tetracycline (μg/ml) (combination) (E. Coli) [µg/mL]	CI value (E. Coli)	FIC tetracycline compound (E. Coli)	MIC tetracycline compound (E. Coli; tetracycline antibiotic alone) [µg/mL]	Protein binding (%) [2]	also measured
Doxycycline hyclate														synergy with dibromopropamidine (in words) [1]: Especially strong synergy
C[C@H]1c2cccc(O)c2C(=O)C2=C(O)[C@]3(O)C(=O)C(C(N)=O)=C(O)[C@@H](N(C)C)[C@@H]3[C@@H](O)[C@@H]21 [Doxycycline hyclate]	0.50	3.13	0.28	0.25	strong synergy	0.03	0.13	16.00	0.25	0.56	0.50	0.50	85%	MIC tetracycline [1, 7]: 25.00 µg/mL
CN(C)[C@@H]1C(O)=C(C(N)=O)C(=O)[C@@]2(O)C(O)=C3C(=O)c4c(O)cccc4[C@@](C)(O)[C@H]3C[C@@H]12.Cl [Tetracycline hydrochloride]	2.00	4.00	0.63	0.50	strong synergy	0.13	0.25		0.50	2.00	1.00			MIC ([1]; 18 h, tetracycline antibiotic alone, Table 2 (diminazene series), read-out: MIC tetracycline): 16 µg/mL; MIC ([1]; 18 h, tetracycline antibiotic alone, Table 3 (dibromopropamidine series), read-out: MIC tetracycline compound): 16 µg/mL; MIC (E. Coli; 18 h, tetracycline antibiotic alone, read-out: MIC tetracycline compound): 0.5 µg/mL
CN(C)c1ccc(O)c2c1C[C@H]1C[C@H]3[C@H](N(C)C)C(O)=C(C(N)=O)C(=O)[C@@]3(O)C(O)=C1C2=O.Cl [Minocycline hydrochloride]	0.50	3.13	0.28	0.25	strong synergy	0.03	0.13	16.00	0.13	0.50	0.25	0.50	66%	synergy with dibromopropamidine (in words) [1]: Especially strong synergy; MIC tetracycline [1, 7]: 25.00 µg/mL
N=C(N)c1ccc(OCCCOc2ccc(C(=N)N)cc2Br)c(Br)c1 [dibromopropamidine, Dibromopropamidine dihydrochloride]														MIC ([1]; dibromopropamidine alone, read-out: MIC dibromopropamidine): 10 µg/mL; MIC dibromopropamidine (μg/ml) (combination) ([1]; dibromopropamidine in combination with doxycycline hyclate): 2.50 µg/mL; MIC dibromopropamidine (μg/ml) (combination) ([1]; dibromopropamidine in combination with minocycline hydrochloride): 2.50 µg/mL; MIC dibromopropamidine (μg/ml) (combination) ([1]; dibromopropamidine in combination with tetracycline hydrochloride): 5.00 µg/mL; MIC dibromopropamidine (μg/ml) (combination) ([1]; dibromopropamidine in combination with tigecycline hydrate): 5.00 µg/mL; FIC dibromopropamidine [1, 9]: 0.25; FIC dibromopropamidine [1, 10]: 0.25; FIC dibromopropamidine [1, 11]: 0.50; FIC dibromopropamidine [1, 12]: 0.50
CN(C)c1cc(NC(=O)CNC(C)(C)C)c(O)c2c1C[C@H]1C[C@H]3[C@H](N(C)C)C(O)=C(C(N)=O)C(=O)[C@@]3(O)C(O)=C1C2=O [Tigecycline hydrate]	0.50		0.52			0.02		32.0	0.25	0.38	0.25	1.00	80%	synergy with diminazene (in words) (E. Coli; combination with diminazene, Table 4): particularly good synergy
N=C(N)c1ccc(/N=N/Nc2ccc(C(=N)N)cc2)cc1 [diminazene, Diminazene aceturate]													65-85%	MIC [1, 13]: 250 µg/mL; FIC dibromopropamidine ([1]; Table 2 (diminazene table), in combination with doxycycline hyclate): 0.13; FIC dibromopropamidine ([1]; Table 2 (diminazene table), in combination with minocycline hydrochloride): 0.13; FIC dibromopropamidine ([1]; Table 2 (diminazene table), in combination with tetracycline hydrochloride): 0.25; MIC diminazene (μg/ml) (combination) [1, 14]: 31.25 µg/mL; MIC diminazene (μg/ml) (combination) [1, 15]: 31.25 µg/mL; MIC diminazene (μg/ml) (combination) [1, 16]: 62.50 µg/mL; MIC (E. Coli; [13]): 20 µg/mL; MIC diminazene (μg/ml) (combination) (E. Coli; [14]): 1.25 µg/mL; MIC diminazene (μg/ml) (combination) (E. Coli; [15]): 5.00 µg/mL; MIC diminazene (μg/ml) (combination) (E. Coli; [16]): 20.00 µg/mL; MIC diminazene (μg/ml) (combination) (E. Coli; diminazene in combination with tigecycline hydrate): 2.50 µg/mL; FIC diminazene (E. Coli; [9]): 0.06; FIC diminazene (E. Coli; [10]): 0.25; FIC diminazene (E. Coli; [11]): 1.00; FIC diminazene (E. Coli; [12]): 0.13
